Laboratory results as given in US5571804A, “Cephalosporin antibiotics” (priority 1993, dated 1996).

Experiments:
[1] = tested on: Pseudomonas aeruginosa 10145; experiment: MIC, two-fold agar dilution; assay type: cell-based; conditions: Muller-Hinton agar, 37° C., 20 hours
[2] = tested on: Staphylococcus epidermidis 887E; experiment: MIC, two-fold agar dilution; assay type: cell-based; conditions: Muller-Hinton agar, 37° C., 20 hours
[3] = tested on: Pseudomonas aeruginosa 1912E; experiment: MIC, two-fold agar dilution; assay type: cell-based; conditions: Muller-Hinton agar, 37° C., 20 hours
Staphylococcus aureus 77 = experiment: MIC, two-fold agar dilution; assay type: cell-based; conditions: Muller-Hinton agar, 37° C., 20 hours
[4] = tested on: Klebsiella aerogenes K1 + 1082E; experiment: MIC, two-fold agar dilution; assay type: cell-based; conditions: Muller-Hinton agar, 37° C., 20 hours
[5] = tested on: Staphylococcus aureus 6538P; experiment: MIC, two-fold agar dilution; assay type: cell-based; conditions: Muller-Hinton agar, 37° C., 20 hours
[6] = tested on: Staphylococcus aureus giorgio; experiment: MIC, two-fold agar dilution; assay type: cell-based; conditions: Muller-Hinton agar, 37° C., 20 hours
[7] = tested on: Acinetobacter calcoaceticus 15473A; experiment: MIC, two-fold agar dilution; assay type: cell-based; conditions: Muller-Hinton agar, 37° C., 20 hours
[8] = pharmakinetic variables in SD rats; conditions: rat, in vivo, iv, 20 mg/kg
Description: The pharmakinetic variables were determined using SD rats (.male.) of a body weight of 230±10g as follows. The "S" compound of each of the Examples was injected to femoral vein of 4-5 rats by 20mg/Kg and then blood was collected from femoral artery in 1, 2.5, 5, 10, 20, 40, 60 and 120 min.

[9] = tested on: Staphylococcus aureus 241; experiment: MIC, two-fold agar dilution; assay type: cell-based; conditions: Muller-Hinton agar, 37° C., 20 hours
[10] = tested on: Citrobacter diversus 2046E; experiment: MIC, two-fold agar dilution; assay type: cell-based; conditions: Muller-Hinton agar, 37° C., 20 hours
E. coli 10536 = experiment: MIC, two-fold agar dilution; assay type: cell-based; conditions: Muller-Hinton agar, 37° C., 20 hours
[11] = tested on: Salmonella typhimurium 14028A; experiment: MIC, two-fold agar dilution; assay type: cell-based; conditions: Muller-Hinton agar, 37° C., 20 hours
Proteus vularis 6059A = experiment: MIC, two-fold agar dilution; assay type: cell-based; conditions: Muller-Hinton agar, 37° C., 20 hours
[12] = tested on: Serratia marcescens 1826E; experiment: MIC, two-fold agar dilution; assay type: cell-based; conditions: Muller-Hinton agar, 37° C., 20 hours
[13] = tested on: Pseudomonas aeruginosa 6065; experiment: MIC, two-fold agar dilution; assay type: cell-based; conditions: Muller-Hinton agar, 37° C., 20 hours
E. coli 3190Y = experiment: MIC, two-fold agar dilution; assay type: cell-based; conditions: Muller-Hinton agar, 37° C., 20 hours
[14] = tested on: Streptococcus laecalis 29212A; experiment: MIC, two-fold agar dilution; assay type: cell-based; conditions: Muller-Hinton agar, 37° C., 20 hours
E. coli 851E = experiment: MIC, two-fold agar dilution; assay type: cell-based; conditions: Muller-Hinton agar, 37° C., 20 hours
E. coli TEM7 3457E = experiment: MIC, two-fold agar dilution; assay type: cell-based; conditions: Muller-Hinton agar, 37° C., 20 hours
[15] = tested on: Enterobacter cloacae IND + VE 1194E; experiment: MIC, two-fold agar dilution; assay type: cell-based; conditions: Muller-Hinton agar, 37° C., 20 hours
[16] = tested on: Klebsiella aerogenes SHV-1 1976E; experiment: MIC, two-fold agar dilution; assay type: cell-based; conditions: Muller-Hinton agar, 37° C., 20 hours
E. coli TEM9 2639E = experiment: MIC, two-fold agar dilution; assay type: cell-based; conditions: Muller-Hinton agar, 37° C., 20 hours
Enterobacter cloacae P99 = experiment: MIC, two-fold agar dilution; assay type: cell-based; conditions: Muller-Hinton agar, 37° C., 20 hours
E. coli TEM5 3739E = experiment: MIC, two-fold agar dilution; assay type: cell-based; conditions: Muller-Hinton agar, 37° C., 20 hours
E. coli TEM3 3455E = experiment: MIC, two-fold agar dilution; assay type: cell-based; conditions: Muller-Hinton agar, 37° C., 20 hours
E. coli TEM1 1193E = experiment: MIC, two-fold agar dilution; assay type: cell-based; conditions: Muller-Hinton agar, 37° C., 20 hours

Row | Structure (SMILES) | minimal inhibitory concentration (MIC) [1] | minimal inhibitory concentration (MIC) [2] | minimal inhibitory concentration (MIC) [3] | minimal inhibitory concentration (MIC) (Staphylococcus aureus 77) | minimal inhibitory concentration (MIC) [4] | minimal inhibitory concentration (MIC) [5] | minimal inhibitory concentration (MIC) [6] | minimal inhibitory concentration (MIC) [7] | minimal inhibitory concentration (MIC) [9] | minimal inhibitory concentration (MIC) [10] | minimal inhibitory concentration (MIC) (E. coli 10536) | minimal inhibitory concentration (MIC) [11] | minimal inhibitory concentration (MIC) (Proteus vularis 6059A) | minimal inhibitory concentration (MIC) [12] | minimal inhibitory concentration (MIC) [13] | minimal inhibitory concentration (MIC) (E. coli 3190Y) | minimal inhibitory concentration (MIC) [14] | minimal inhibitory concentration (MIC) (E. coli 851E) | minimal inhibitory concentration (MIC) (E. coli TEM7 3457E) | minimal inhibitory concentration (MIC) [15] | other results
1 | CC(C)(O/N=C(\C(=O)N[C@@H]1C(=O)N2C(C(=O)[O-])=C(C[n+]3ccccc3)CS[C@H]12)c1csc(N)n1)C(=O)O [Ceftazidime, reference compound] | 2 | > 128 | 1 | 32 | 0.25 | 16 | 4 | 2 | > 128 | 0.5 | 0.13 | 0.25 | 0.063 | 0.25 | 16 | 0.063 | > 128 | – | – | – | AUC at 2 h [8]: 31100 ng·h/mL
2 | Nc1cc(N)nc(SCC2=C(C(=O)O)N3C(=O)[C@@H](NC(=O)/C(=N\O[C@H](C(=O)O)c4ccc(O)c(O)c4)c4csc(N)n4)[C@H]3SC2)n1 [Compound I-1S, 7-[(Z)-2-(aminothiazol-4-yl)-2-(α-carboxy-3,4-dihydroxybenzyloxyimino)acetamido]-3-(4,6-diamino-pyrimidine-2-yl) thiomethyl-3-cephem-4-carboxylate] | 0.13 | 32 | 0.25 | 8 | 0.031 | 2 | 1 | 0.13 | 64 | 0.063 | ≤ 0.008 | 0.016 | 0.13 | 0.25 | 0.25 | 0.031 | 4 | 0.031 | ≤ 0.008 | 2 | AUC at 2 h [8]: 61600 ng·h/mL; half-life [8]: 1.03 h; minimal inhibitory concentration (MIC) [16]: 0.13; minimal inhibitory concentration (MIC) (E. coli TEM9 2639E): 0.25; minimal inhibitory concentration (MIC) (Enterobacter cloacae P99): 16; minimal inhibitory concentration (MIC) (E. coli TEM5 3739E): 0.063; minimal inhibitory concentration (MIC) (E. coli TEM3 3455E): 0.016; minimal inhibitory concentration (MIC) (E. coli TEM1 1193E): 0.031
3 | Nc1cc(SCC2=C(C(=O)O)N3C(=O)[C@@H](NC(=O)/C(=N\O[C@@H](C(=O)O)c4ccc(O)c(O)c4)c4csc(N)n4)[C@H]3SC2)nc(N)n1 [Compound I-6R, 7-[(Z)-2-(aminothiazol-4-yl)-2-(α-carboxy-3,4-dihydroxybenzyloxyimino)acetamido]-3-(2,6-diamino-pyrimidine-4-yl)thiomethyl-3-cephem-4-carboxylate] | 0.25 | 32 | 0.25 | 16 | 0.25 | 1 | 1 | 0.25 | 64 | 0.13 | 0.016 | 0.13 | 0.25 | 0.5 | 1 | 0.063 | 4 | 0.063 | 0.016 | 4 | minimal inhibitory concentration (MIC) [16]: 0.25; minimal inhibitory concentration (MIC) (E. coli TEM9 2639E): 0.25; minimal inhibitory concentration (MIC) (Enterobacter cloacae P99): 8; minimal inhibitory concentration (MIC) (E. coli TEM5 3739E): 0.063; minimal inhibitory concentration (MIC) (E. coli TEM3 3455E): 0.031; minimal inhibitory concentration (MIC) (E. coli TEM1 1193E): 0.063
4 | Nc1cc(SCC2=C(C(=O)O)N3C(=O)[C@@H](NC(=O)/C(=N\O[C@H](C(=O)O)c4ccc(O)c(O)c4)c4csc(N)n4)[C@H]3SC2)nc(N)n1 [Compound I-6S, 7-[(Z)-2-(aminothiazol-4-yl)-2-(α-carboxy-3,4-dihydroxybenzyloxyimino)acetamido]-3-(2,6-diamino-pyrimidine-4-yl)thiomethyl-3-cephem-4-carboxylate] | 0.25 | 32 | – | 8 | 0.031 | 1 | 1 | 0.13 | 64 | 0.063 | ≤ 0.008 | 0.016 | 0.13 | 0.13 | 0.25 | 0.031 | 2 | 0.031 | ≤ 0.008 | 2 | AUC at 2 h [8]: 59800 ng·h/mL; half-life [8]: 1.03 h; minimal inhibitory concentration (MIC) [16]: 0.13; minimal inhibitory concentration (MIC) (E. coli TEM9 2639E): 0.13; minimal inhibitory concentration (MIC) (Enterobacter cloacae P99): 8; minimal inhibitory concentration (MIC) (E. coli TEM5 3739E): 0.063; minimal inhibitory concentration (MIC) (E. coli TEM3 3455E): 0.016; minimal inhibitory concentration (MIC) (E. coli TEM1 1193E): 0.031
5 | Nc1cc(SCC2=C(C(=O)O)N3C(=O)[C@@H](NC(=O)/C(=N\O[C@@H](C(=O)O)c4ccc(O)c(O)c4)c4csc(N)n4)[C@H]3SC2)ncn1 [Compound I-7R, 7[-(Z)-2-(aminothiazol-4-yl)-2-(α-carboxy-3,4-dihydroxybenzyloxyimino)acetamido]-3-(6-amino-pyrimidine-4-yl)thiomethyl-3cephem-4-carboxylate] | 2 | 32 | 0.25 | 8 | 0.25 | 2 | 2 | 0.25 | 128 | 0.13 | 0.016 | 0.13 | 0.25 | 0.5 | 4 | 0.063 | 4 | 0.13 | 0.031 | 4 | minimal inhibitory concentration (MIC) [16]: 0.25; minimal inhibitory concentration (MIC) (E. coli TEM9 2639E): 0.25; minimal inhibitory concentration (MIC) (Enterobacter cloacae P99): 8; minimal inhibitory concentration (MIC) (E. coli TEM5 3739E): 0.063; minimal inhibitory concentration (MIC) (E. coli TEM3 3455E): 0.031; minimal inhibitory concentration (MIC) (E. coli TEM1 1193E): 0.13
